In ChEMBL document CHEMBL2401712, “Fused thiazolyl alkynes as potent mGlu5 receptor positive allosteric modulators” (Bioorg Med Chem Lett, 2013):

Legend:
[1] = tested on: Liver microsomes; assay: Intrinsic clearance in human liver microsomes; format: ADME, Microsome; design: unit not given here
[2] = biological target: CYP2D6 (Homo sapiens, UniProt P10635); assay: Inhibition of CYP2D6 (unknown origin) at 5 uM relative to control; format: ADME
[3] = biological target: T1, Metabotropic glutamate receptor 5 (Homo sapiens, UniProt P41594); assay: Negative allosteric modulation of human mGlu5 receptor expressed in HEK293 cells assessed as inhibition of L-glutamate-induced activity after 1 hr by FLIPR assay; format: cell-based
Target sequence in this assay (P41594 whole entry): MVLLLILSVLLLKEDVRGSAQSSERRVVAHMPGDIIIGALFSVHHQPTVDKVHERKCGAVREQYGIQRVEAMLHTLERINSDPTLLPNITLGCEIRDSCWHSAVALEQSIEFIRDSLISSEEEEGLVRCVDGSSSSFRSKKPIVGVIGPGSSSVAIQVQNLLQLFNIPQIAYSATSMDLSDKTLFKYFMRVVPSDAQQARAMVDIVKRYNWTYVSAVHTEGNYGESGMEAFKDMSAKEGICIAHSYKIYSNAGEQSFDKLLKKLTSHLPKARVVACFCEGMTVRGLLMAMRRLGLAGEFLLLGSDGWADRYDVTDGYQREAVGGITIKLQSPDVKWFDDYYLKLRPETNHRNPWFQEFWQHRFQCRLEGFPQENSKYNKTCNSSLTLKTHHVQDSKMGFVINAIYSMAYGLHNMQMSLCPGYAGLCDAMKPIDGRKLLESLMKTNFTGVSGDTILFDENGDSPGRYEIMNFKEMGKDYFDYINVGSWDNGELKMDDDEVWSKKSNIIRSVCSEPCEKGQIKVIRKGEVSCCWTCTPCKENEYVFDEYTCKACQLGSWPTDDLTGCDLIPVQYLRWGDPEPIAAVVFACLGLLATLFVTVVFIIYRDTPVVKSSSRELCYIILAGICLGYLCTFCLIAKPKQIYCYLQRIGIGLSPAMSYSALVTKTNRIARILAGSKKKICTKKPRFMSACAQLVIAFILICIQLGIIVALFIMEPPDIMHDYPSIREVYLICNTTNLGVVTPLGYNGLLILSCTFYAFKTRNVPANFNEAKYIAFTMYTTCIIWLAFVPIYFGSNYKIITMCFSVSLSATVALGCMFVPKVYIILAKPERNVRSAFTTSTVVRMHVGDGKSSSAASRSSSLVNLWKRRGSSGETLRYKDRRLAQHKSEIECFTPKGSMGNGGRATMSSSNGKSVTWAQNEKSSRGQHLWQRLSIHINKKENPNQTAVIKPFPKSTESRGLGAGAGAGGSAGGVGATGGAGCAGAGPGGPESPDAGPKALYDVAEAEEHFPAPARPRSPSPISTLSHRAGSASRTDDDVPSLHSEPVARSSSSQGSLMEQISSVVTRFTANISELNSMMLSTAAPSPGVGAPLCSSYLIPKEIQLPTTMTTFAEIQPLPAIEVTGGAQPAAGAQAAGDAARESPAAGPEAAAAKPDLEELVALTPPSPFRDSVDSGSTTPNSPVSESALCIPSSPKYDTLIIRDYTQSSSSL

[4] = biological target: CYP3A4 (Homo sapiens, UniProt P08684); assay: Inhibition of CYP3A4 (unknown origin) at 5 uM relative to control; format: ADME
Sequence of CYP3A4 (P08684 whole entry): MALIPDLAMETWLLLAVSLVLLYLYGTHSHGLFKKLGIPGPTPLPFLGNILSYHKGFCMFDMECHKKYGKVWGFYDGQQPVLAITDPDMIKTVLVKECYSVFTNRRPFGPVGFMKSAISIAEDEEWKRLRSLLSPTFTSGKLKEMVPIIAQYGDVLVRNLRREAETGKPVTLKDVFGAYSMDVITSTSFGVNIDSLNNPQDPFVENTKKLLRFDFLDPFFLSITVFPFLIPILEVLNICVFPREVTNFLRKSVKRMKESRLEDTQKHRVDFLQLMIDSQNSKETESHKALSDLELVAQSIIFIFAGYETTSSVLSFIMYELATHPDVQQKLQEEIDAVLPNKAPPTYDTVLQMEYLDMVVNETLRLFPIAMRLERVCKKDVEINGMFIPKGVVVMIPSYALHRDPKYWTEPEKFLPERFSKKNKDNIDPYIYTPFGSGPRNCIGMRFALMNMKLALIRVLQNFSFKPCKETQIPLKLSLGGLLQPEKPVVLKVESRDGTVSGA

[5] = biological target: T1, Metabotropic glutamate receptor 5; assay: Positive allosteric modulation of human mGlu5 receptor expressed in HEK293 cells assessed as potentiation of L-glutamate-induced activity after 1 hr by FLIPR assay; format: cell-based
Target sequence in this assay (P41594 whole entry): as the sequence (P41594 whole entry) above

[6] = Plasma protein binding in human; format: ADME, cell-free; settings: read-out: PPB (converted)
[7] = biological target: T1, Metabotropic glutamate receptor 5; assay: Positive allosteric modulation of human mGlu5 receptor expressed in HEK293 cells assessed as potentiation of L-glutamate-induced activity after 1 hr by FLIPR assay relative to control; format: cell-based
Target sequence in this assay (P41594 21-1212 limits assumed): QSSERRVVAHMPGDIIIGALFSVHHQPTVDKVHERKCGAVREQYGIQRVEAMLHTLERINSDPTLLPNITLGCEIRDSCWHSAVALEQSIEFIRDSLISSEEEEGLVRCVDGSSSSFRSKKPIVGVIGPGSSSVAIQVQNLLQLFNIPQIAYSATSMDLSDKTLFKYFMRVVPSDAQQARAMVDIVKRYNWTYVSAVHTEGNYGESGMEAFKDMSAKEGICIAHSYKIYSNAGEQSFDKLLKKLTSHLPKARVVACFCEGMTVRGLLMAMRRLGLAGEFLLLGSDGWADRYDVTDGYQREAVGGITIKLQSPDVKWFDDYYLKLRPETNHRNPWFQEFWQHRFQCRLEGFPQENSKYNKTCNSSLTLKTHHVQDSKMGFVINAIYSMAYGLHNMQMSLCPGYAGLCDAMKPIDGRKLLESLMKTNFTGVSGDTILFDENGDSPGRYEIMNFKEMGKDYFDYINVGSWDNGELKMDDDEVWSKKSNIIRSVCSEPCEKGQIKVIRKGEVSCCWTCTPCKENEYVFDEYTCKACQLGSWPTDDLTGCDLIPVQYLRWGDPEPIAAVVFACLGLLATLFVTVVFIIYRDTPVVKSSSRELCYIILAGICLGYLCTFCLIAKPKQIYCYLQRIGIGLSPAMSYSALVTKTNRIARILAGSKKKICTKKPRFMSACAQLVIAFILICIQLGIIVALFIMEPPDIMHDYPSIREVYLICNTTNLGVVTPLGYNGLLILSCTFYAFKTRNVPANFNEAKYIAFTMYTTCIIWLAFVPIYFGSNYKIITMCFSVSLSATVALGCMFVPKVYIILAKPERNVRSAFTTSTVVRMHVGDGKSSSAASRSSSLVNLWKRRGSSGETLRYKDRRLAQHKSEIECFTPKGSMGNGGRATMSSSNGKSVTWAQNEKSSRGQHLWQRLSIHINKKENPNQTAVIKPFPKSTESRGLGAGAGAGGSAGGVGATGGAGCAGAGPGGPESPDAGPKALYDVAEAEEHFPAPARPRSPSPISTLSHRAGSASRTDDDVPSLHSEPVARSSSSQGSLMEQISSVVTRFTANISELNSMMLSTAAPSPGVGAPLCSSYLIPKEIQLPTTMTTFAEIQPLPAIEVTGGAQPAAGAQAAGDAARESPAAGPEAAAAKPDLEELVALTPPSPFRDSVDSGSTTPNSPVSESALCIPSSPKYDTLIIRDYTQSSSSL

[8] = Plasma protein binding in rat; format: ADME, cell-free; settings: read-out: PPB (converted)
[9] = tested on: Liver microsomes; assay: Intrinsic clearance in rat liver microsomes; format: ADME, Microsome
[10] = tested on: Liver microsomes; assay: Metabolic stability in human liver microsomes assessed as GSH adduct formation after 60 mins by LC-MS/MS analysis; format: ADME, Microsome; settings: 1 h
[11] = biological target: T1, Metabotropic glutamate receptor 5; assay: Positive allosteric modulation of mGlu5 receptor (unknown origin)
Target sequence in this assay (P41594 whole entry): as the sequence (P41594 whole entry) above

[12] = biological target: T1, Metabotropic glutamate receptor 5; assay: Positive allosteric modulation of mGlu5 receptor (unknown origin) relative to control
Target sequence in this assay (P41594 21-1212 limits assumed): as the sequence (P41594 21-1212 limits assumed) above

[13] = biological target: T1, Metabotropic glutamate receptor 5; assay: Negative allosteric modulation of human mGlu5 receptor expressed in HEK293 cells assessed as inhibition of L-glutamate-induced activity after 1 hr by FLIPR assay relative to control; format: cell-based; design: concentration or dose not given beside the values; settings: concentration not given here
Target sequence in this assay (P41594 21-1212 limits assumed): as above

Sequence of CYP2D6 (P10635 whole entry): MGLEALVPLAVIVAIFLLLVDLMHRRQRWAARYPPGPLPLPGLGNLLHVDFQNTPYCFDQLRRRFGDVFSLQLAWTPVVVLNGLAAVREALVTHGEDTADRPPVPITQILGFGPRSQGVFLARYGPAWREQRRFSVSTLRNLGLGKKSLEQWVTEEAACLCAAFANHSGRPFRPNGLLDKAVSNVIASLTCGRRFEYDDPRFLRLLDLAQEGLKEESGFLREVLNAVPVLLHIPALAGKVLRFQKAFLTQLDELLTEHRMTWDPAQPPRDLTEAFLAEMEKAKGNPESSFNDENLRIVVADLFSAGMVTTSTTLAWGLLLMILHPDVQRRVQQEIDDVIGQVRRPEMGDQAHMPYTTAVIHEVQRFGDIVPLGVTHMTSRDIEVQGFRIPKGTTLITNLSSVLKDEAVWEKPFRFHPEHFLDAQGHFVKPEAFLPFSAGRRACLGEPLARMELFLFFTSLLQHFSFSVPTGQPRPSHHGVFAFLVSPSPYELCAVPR

| SMILES | CLH [1] | inhibition at 5 µM [2] [%] | IC50 [3] [nM] | inhibition at 5 µM [4] [%] | EC50 [5] [nM] | fraction unbound [6] | Emax [7] [%] | fraction unbound [8] | CLH [9] [mL/min] | Stability [10] | EC50 [11] [nM] | Emax [12] [%] | inhibition [13] [%] |
| --- | --- | --- | --- | --- | --- | --- | --- | --- | --- | --- | --- | --- | --- |
| O=C(N1CCCC1)N1CCc2nc(C#Cc3ccccc3)sc2C1 | 1 | < 40 | > 10000 | < 40 | 9.8 | 0.024 | 180 | 0.047 | 49 | – | – | – | – |
| CN1CCc2nc(C#Cc3ccccc3)sc2C1 | 4.9 | < 40 | > 10000 | < 40 | 34 | 0.035 | 110 | 0.061 | 88 | Stable | – | – | – |
| O=C(c1cnc(C#Cc2ccccc2)s1)N1CCCCC1 | – | – | – | – | – | – | – | – | – | Unstable | 6.1 | 167 | – |
| CN1CCc2nc(C#Cc3ccccc3)sc2C1=O | 3.1 | < 40 | > 10000 | < 40 | 2.4 | 0.033 | 180 | 0.049 | 52 | Unstable | – | – | – |
| O=C(C1CC(F)(F)C1)N1CCc2nc(C#Cc3ccccc3)sc2C1 | 1.1 | < 40 | > 10000 | < 40 | 18 | 0.011 | 89 | 0.012 | 7.6 | Stable | – | – | 52 |
| Fc1cccc(C#Cc2nc3c(s2)CN(C2CCC2)CC3)c1 | – | – | 200 | – | > 10000 | – | -40 | – | – | – | – | – | 91 |
| Cc1cccc(C(=O)N2CCc3nc(C#Cc4ccccc4)sc3C2)n1 | – | – | > 10000 | – | 160 | – | 120 | – | – | – | – | – | 19 |
| O=S(=O)(N1CCCCC1)N1CCc2nc(C#Cc3ccccc3)sc2C1 | – | – | 780 | – | > 10000 | – | 6 | – | – | – | – | – | 86 |
| COC1CC(C(=O)N2CCc3nc(C#Cc4ccccc4)sc3C2)C1 (centres undefined) | – | – | > 10000 | – | 640 | – | 43 | – | – | – | – | – | -0.2 |
